Format in all cases: physicochemical
The nature of data set [1]: Steady-state fluorescence anisotropy in solvents and liposomes. The settings on record: for steady-state anisotropy (a), DMPC: DMPC liposomes, 1/a vs. 1/[lipid] plot; for steady-state anisotropy (a), DMPC / steady-state anisotropy (a), DMPG / steady-state anisotropy (a), PBS / steady-state anisotropy (a), glycerol / steady-state anisotropy (a), octanol / steady-state anisotropy (a), DSPC: 37° C.; for steady-state anisotropy (a), DMPG: DMPG liposomes; for steady-state anisotropy (a), PBS / steady-state anisotropy (a), glycerol / steady-state anisotropy (a), octanol: 1 μM drug; for limiting fluorescence anisotropy a0: extrapolated to -25° C.; for limiting fluorescence anisotropy a0 / steady-state anisotropy (a), glycerol: glycerol; for steady-state anisotropy (a), DSPC: DSPC liposomes. The method, then:
Steady-state fluorescence measurements were obtained on a SLM Model 4800C. spectrofluorometer with a thermostated cuvette compartment. This instrument was interfaced with an IBM PS/2 model 55 SX computer. Excitation and emission spectra were recorded with an excitation resolution of 8 nm and an emission resolution of 4 nm. In all cases spectra were corrected for background fluorescence and scatter from unlabeled lipids or from solvents by subtraction of the spectrum of a blank. Steady-state fluorescence intensity measurements were made in the absence of polarizer. Steady-state anisotropy (a) measurements were determined with the instrument in the "T-format" for simultaneous measurement of two polarized intensities. The alignment of polarizers were checked routinely using a dilute suspension of 0.25 μm polystyrene microspheres from Polysciences, Inc, Warrington, Pa., in water; anisotropy values of >0.99 were obtained. The anisotropy was calculated from a=(Ivv -GlVH)/(Ivv +GIVH), where G-IVH /IHH and the subscripts refer to vertical and horizontal orientations of the excitation and emission polarizers, respectively.
Anisotropy measurements for camptothecin, camptothecin carboxylate sodium salt, and 10,11-methylenedioxycamptothecin were conducted using exciting light of 370 nm and 420 nm long wave pass filters on each emission channel in order to isolate the fluorescence signal from background scatter and signal. For topotecan a 400 nm excitation wavelength and a 500 nm emission filter were used and for 9-aminocamptothecin a 375 nm excitation and a wavelength 420 nm emission filter were used. For AMC and CMC, a 370 nm excitation wavelength and a 400 nm emission filter were used. For 10-hydroxycamptothecin 375 nm excitation wavelength 500 nm emission filter was used. Emission filters were obtained from Oriel Corp. Stamford, Conn. The combination of exciting light and emission filters allows one to adequately separate the fluorescence from the background signal. The contribution of background fluorescence, together with scattered light, was typically less than 1% of the total intensity. Since the lactone ring of the camptothecin drug undergoes hydrolysis in aqueous medium, all measurements were completed within the shortest possible time, less than 1 minute after mixing the drug stock solution with PBS or the liposomes. In each case, analysis was initiated immediately after mixing the drug stock solution with PBS or with the liposomes. All measurements were performed at 37° C. unless otherwise noted.
(§1) While the spectral changes provide qualitative evidence that the camptothecin drugs bind the liposome membranes, fluorescence anisotropy titration, offers the most sensitive means for quantitatively assessing the extent of the binding. The fluorescence anisotropy titration was performed according to the method of Burke and Tritton, Biochemistry 24: 1768-1776 (1985).
A steady-state fluorescence anisotropy (a) measurement is related to the rotational rate of the fluorescent molecule through the Perrin Equation: […]
where a0 is the limiting fluorescence anisotropy value, that is, the anisotropy value in the absence of depolarizing rotations, T is the excited-state lifetime, and .phi. is the rotational correlative time of the fluorophore. According to Equation 1, changes in either the T or .phi. values of a fluorescent compound can modulate its steady-state anisotropy.
The limiting fluorescence anisotropy (a0) values were also measured. The maximum values of (a) were obtained by dissolving the camptothecin drugs in the viscous solvent glycerol and cooling the samples to low temperatures. Steady-stated anisotropy (a) values were determined for samples containing 1 μM drug at 37° C.
Where the solvent viscosity is high and temperature is low, depolarizing rotations are at a minimum. By extrapolating these (a) values to -25° C., the limiting anisotropy values (a0) for the camptothecin drugs, were determined. […]

Data set [2] can be described thus: Overall association constant by fluorescence anisotropy titration, DMPG liposomes. The settings on record: for overall association constant K, DMPG: DMPG (negatively charged, fluid phase), PBS, 37° C.; for bound drug level, DMPG: DMPG liposomes, 0.29M lipid, estimated. The method, then:
as §1
The concentrations of free camptothecin drugs and camptothecin drugs associated with liposomes were determined at various lipid concentrations. All experiments were conducted in glass tubes pretreated with a silating agent, Surfacil, from Pearce Chemical, Rockford, Ill. The titration was conducted at camptothecin drug concentration of 1×10^-6 M in PBS at 37° C. Anisotropy values at each lipid concentration were determined within less than 30 seconds following the addition of the camptothecin drugs to the liposome suspension. The (a) values were determined for fixed drug concentration, typically 2 μM, while the lipid concentration was varied from 0 to 0.29M. By varying the lipid concentration rather than varying the drug concentration, the problem of self-association phenomenon which occurs for camptothecin drugs concentrations in excess of 10 μM is avoided. Also, the well-known phenomenon known as inner filter effect which occurs using fluorescent material at high optical densities is a is avoided.
Adsorption isotherms like those shown in FIGS. 4A and 4B were used to determine overall association constants for the camptothecin drugs. Overall association constants are defined as: […]
where [AB ] represents the concentration of the camptothecin drug bound to the vesicle membrane, [AF ] represents the concentration of free drug, and [L] represents the total lipid concentration in the liposome suspension. This equation is valid when the concentration of free lipid is approximately equal to the concentration of total lipid, that is, the concentration of free lipid is in great excess over the concentration of bound drug. Provided this concentration is satisfied, K may be determined from the inverse of the slope of a double reciprocal plot according to (Burke and Tritton, Biochemistry 24:1776, 1985). In such a plot, 1/bound fraction of the total camptothecin drug is plotted vs. 1/[lipid], with a y-intercept value of 1.
The stabilization of camptothecin drugs was determined using different lipids. Three types of lipids (and thus 3 types of membranes) were examined: fluid-phase and electroneutral L-α-dimyristoylphosphatidylcholine (DMPC); fluid-phase and negatively-charged L-α-dimyristoylphosphatidylglycerol (DMPG), and solid-phase and electroneutral L-α-distearoylphosphatidylcholine (DSPC). While DMPC and DMPG have identical chain length, the charge on their head groups differ. DMPC and DSPC have identical head groups, but DMPC has acyl chains having 14 carbons per chain, which are four carbons shorter than the DSPC, which has 18 carbons per chain. This difference of 4-carbon chain length results in DMPC being fluid-phase at 37° C. while DSPC is solid-phase. The 7 camptothecin drugs listed in Table III were combined with liposomes containing the above lipids.
FIGS. 4A and 4B show the extent of camptothecin drug binding to liposomes as a function of lipid concentration for DMPC and DMPG liposomes. DMPC liposomes were made as in Example 1, at lipid concentrations from 0 to 0.29M, using CMC, 10-hydroxycamptothecin, 10,11-methylenedioxy-camptothecin, topotecan, camptothecin, and camptothecin carboxylate sodium salt, as shown in FIG. 4B. DMPG liposomes were made as in Example 2, at lipid concentrations from 0 to 0.29M, using 9-chloro-10,11-methylenedioxycamptothecin CMC, 10,11-methylenedioxycamptothecin, camptothecin, and topotecan, 9-aminocamptothecin, as shown in FIG. 4A. The lipid concentration […] of the data using double-reciprocal plots gave identical overall association/binding constants of 100M^-1.

Data set [3] can be described thus: Overall association constant by fluorescence anisotropy titration, DSPC liposomes. The settings on record: for overall association constant K, DSPC: DSPC (electroneutral, solid phase), PBS, 37° C.
Description: The concentrations of free camptothecin drugs and camptothecin drugs associated with liposomes were determined at various lipid concentrations. […] The titration was conducted at camptothecin drug concentration of 1×10^-6 M in PBS at 37° C. Anisotropy values at each lipid concentration were determined within less than 30 seconds following the addition of the camptothecin drugs to the liposome suspension. […] By varying the lipid concentration rather than varying the drug concentration, the problem of self-association phenomenon which occurs for camptothecin drugs concentrations in excess of 10 μM is avoided. Also, the well-known phenomenon known as inner filter effect which occurs using fluorescent material at high optical densities is a is avoided.

“Also recorded” adds a separate entry of the source.

Turning to `CCC1(O)C(=O)OCc2c1cc1n(c2=O)Cc2cc3c(Cl)c4c(cc3nc2-1)OCO4` (stereo not drawn) [9-chloro-10,11-methylenedioxycamptothecin], in data set [1], the “steady-state anisotropy (a), DMPC” value was determined as 0.202; the “steady-state anisotropy (a), DMPG” value amounted to 0.207; the “steady-state anisotropy (a), PBS” value stood at 0.025; the “limiting fluorescence anisotropy a0” value was 0.367. Also, in data set [1], the “steady-state anisotropy (a), glycerol” value came to 0.363 and the “steady-state anisotropy (a), octanol” value was 0.098. In data set [2], the “overall association constant K, DMPG” value came out at 320 M⁻¹ and the “bound drug level, DMPG” value is 99%. In addition, the “overall association constant K, DSPC” value in data set [3] stood at 500 M⁻¹.
In the case of `CCC1(O)C(=O)OCc2c1cc1n(c2=O)Cc2cc3cc4c(cc3nc2-1)OCO4` (stereo not drawn) [10,11-methylenedioxycamptothecin], in data set [1], the “steady-state anisotropy (a), DMPC” value is listed as 0.168; the “steady-state anisotropy (a), DMPG” value is on record as 0.206; the “steady-state anisotropy (a), PBS” value stood at 0.021; the “limiting fluorescence anisotropy a0” value is 0.374. In data set [1], the “steady-state anisotropy (a), glycerol” value turned out to be 0.357 and the “steady-state anisotropy (a), octanol” value turned out to be 0.089.
Consider `CCC1(O)C(=O)OCc2c1cc1n(c2=O)Cc2cc3cc(O)ccc3nc2-1` (stereo not drawn) [10-hydroxycamptothecin], for which, in data set [1], the “steady-state anisotropy (a), DMPC” value is 0.191; the “steady-state anisotropy (a), DMPG” value is 0.201; the “steady-state anisotropy (a), PBS” value is listed as 0.021; the “limiting fluorescence anisotropy a0” value was 0.372. Also, in data set [1], the “steady-state anisotropy (a), glycerol” value came to 0.331 and the “steady-state anisotropy (a), octanol” value was found to be 0.127. Besides, in data set [2], the “overall association constant K, DMPG” value was 75 M⁻¹.
As for `CC[C@@]1(O)C(=O)OCc2c1cc1n(c2=O)Cc2cc3ccccc3nc2-1` [camptothecin], in data set [1], the “steady-state anisotropy (a), DMPC” value turned out to be 0.127; the “steady-state anisotropy (a), DMPG” value was determined as 0.122; the “steady-state anisotropy (a), DSPC” value is on record as 0.087; the “steady-state anisotropy (a), PBS” value amounted to 0.007. Also, in data set [1], the “limiting fluorescence anisotropy a0” value is listed as 0.383; the “steady-state anisotropy (a), glycerol” value worked out at 0.334; the “steady-state anisotropy (a), octanol” value stood at 0.051. Besides, in data set [1] (bound to DMPG liposomes), the “enhancement in steady-state anisotropy (a) value” is on record as 17 -fold. The “bound drug level, DMPG” value in data set [2] is 97%. Besides, the “overall association constant K, DSPC” value in data set [3] was determined as 300 M⁻¹. Moreover, the “binding preference for DSPC liposomes over DMPC liposomes” value in data set [3] (solid-phase DSPC over fluid-phase DMPC) is 3 -fold.
As to `CC[C@@]1(O)C(=O)OCc2c1cc1n(c2=O)Cc2cc3c(CN(C)C)c(O)ccc3nc2-1` [topotecan], in data set [1], the “steady-state anisotropy (a), DMPC” value is reported as 0.125; the “steady-state anisotropy (a), DMPG” value was 0.170; the “steady-state anisotropy (a), DSPC” value was 0.059; the “steady-state anisotropy (a), PBS” value is 0.008. Further, in data set [1], the “limiting fluorescence anisotropy a0” value is recorded as 0.367; the “steady-state anisotropy (a), glycerol” value is 0.320; the “steady-state anisotropy (a), octanol” value amounted to 0.071. Besides, the “reduced ability to bind negatively-charged liposome membranes relative to CMC” value in data set [2] (DMPG) is given as 6 -fold. In addition, in data set [2], the “overall association constant K, DMPG” value is 50 M⁻¹ and the “bound drug level, DMPG” value is given as 93%. The “binding preference DMPG over DMPC” value in data set [2] (DMPG compared to DMPC) was “preferentially binds negatively charged DMPG liposomes as compared to DMPC liposomes; also recorded: strong binding preference for the negatively-charged lipid DMPG”. Besides, the “binding preference for DSPC liposomes over DMPC liposomes” value in data set [3] (dspc over dmpc liposomes) was 5 -fold.

Values taken from patent publication US5552156A, “Liposomal and micellular stabilization of camptothecin drugs” (Ohio State University, priority 1995, dated 1996).
